How the values were obtained:
CaEs-17 cells = experiment: MTT antiproliferative assay, CaEs-17; format: cell-based, human
Method: [The source words this procedure for another cell line and reports this cell line under the same test.] (§1) Cytotoxicity assay in vitro was employed by the MTT assay following the methodology described previously, which was performed in flat-bottomed 96-well plates. In short, exponentially growing MGC-803 cells at the log phase were added to each well at a density of 5 × 10^3 per well, then treated with serial dilutions of the compounds in three replicates at various concentrations (0.039–40 µg/mL). After 72 h, 20 µL of MTT solution (5 mg/mL) per well was added to each cultured medium. Then, DMSO was added to each well (150 µL/well). After 10 min at room temperature, the absorbance (OD) was read on a microplate reader at the wavelength of 490 nm (BIO-RAD Instruments Inc. 550, Hercules, CA, USA). In these experiments, taxol was used as the positive reference with the concentration of 10 µg/mL.

Bel-7402 cells [1] = experiment: Mitochondrial membrane potential assay (JC-1); format: cell-based, human; conditions: 48 h, control 3.28%
Method: […] The percentage of cells with healthy or collapsed mitochondrial membrane potentials was monitored by flow cytometry analysis.
Figure 6 Effect of 10f on the mitochondrial membrane potentials of Bel-7402 cells: Bel-7402 cells were incubated with the indicated concentrations of 10f for 48 h prior to staining with JC-1. […] In each plot the first value is in the upper right quadrant and the second in the lower right quadrant.

[2] = tested on: apoptosis-related proteins in Bel-7402 cells; experiment: Western blot of apoptosis-related proteins; format: cell-based, human; conditions: 10f 1.0, 1.5 and 2.0 μM, 48 h, concentration-dependent
Method: Bel-7402 cells were incubated in triplicate with different doses (1.0, 1.5 and 2.0 μM) of 10f for 48 h. After the protein concentrations were determined, individual cell lysates were separated by sodium dodecyl sulfate polyacrylamide gel electrophoresis (10% gel, SDS-PAGE) and transferred onto nitrocellulose membranes. After being blocked with 5% fat-free milk, the target proteins in the membranes were probed with monoclonal anti-Bax (KGA714), anti-Bcl2 (KGA715), anti-caspase 3 (KGA717), anti-caspase 9 (KGA720), anti-cyto C (KGA723), and anti-β-actin antibodies (KGA731, KeyGEN Biotech, Nanjing, China), respectively. The relative levels of each signaling event to control β-actin were determined by densimetric scanning.
Figure 7 Western blotting of 10f on the expression of apoptosis-related proteins in Bel-7402 cells. 1: negative control; 2: 2.0 μM; 3: 1.5 μM; 4: 1.0 μM.

L-02 normal liver cells = experiment: MTT antiproliferative assay, L-02; format: cell-based
Method: [The source words this procedure for another cell line and reports this cell line under the same test.] as §1

K562 cells = experiment: MTT antiproliferative assay, K562; format: cell-based, human
Method: [The source words this procedure for another cell line and reports this cell line under the same test.] as §1

Bel-7402 cells [3] = experiment: Cell cycle study by PI flow cytometry; format: cell-based, human; conditions: for G2 phase cells: control 20.72%; for cells at the S phase: control 34.65%
Method: Progression through the cell cycle was assessed by flow cytometry DNA determination with PI. Bel-7402 cells were plated in 6-well plates (5.0 × 10^3 cells/well) and incubated at 37 °C for 24 h. Exponentially growing cells were then incubated with tested compound at a certain concentration in triplicate. Untreated cells (control) or cells treated with the solvent (DMSO) of the compound were included. After 48 h treatment, cells were centrifuged and fixed in 70% ethanol at 4 °C overnight and subsequently resuspended in PBS containing 100 μL RNase A and 400 μL PI. Cellular DNA content, for cell cycle distribution analysis, was measured using a flow cytometer (FACS Calibur Becton-Dickinson, Franklin Lake, NJ, USA).
Figure 4 Influence of the cell cycle arrest of S phase by 10f in Bel-7402 cells: Bel-7402 cells were incubated with the indicated concentrations of 10f for 24 h and the cells were stained with propidium iodide (PI). Cellular DNA content, for cell cycle distribution analysis, was measured using a flow cytometer. The diagrams show the distribution of the cells according to their DNA content. The inserts give the percentages of cells in different cell cycle phases. TEXT PRINTED IN THE PICTURE: Control group: G1: 44.64%; S: 34.65%; G2: 20.72% | no label printed: G1: 42.41% (1 μM); S: 40.27% (1 μM); G2: 17.32% (1 μM); G1: 43.10% (1.5 μM); S: 48.11% (1.5 μM); G2: 8.79% (1.5 μM); G1: 40.63% (2 μM); S: 53.34% (2 μM); G2: 6.02% (2 μM) DOUBTS OF THE COPYIST ABOUT THIS PICTURE: The picture prints no label for the treated substance, only the concentrations 1 μM, 1.5 μM and 2 μM, so the substance is left blank and the concentrations are given as conditions. / Control group is an untreated reference, not a substance. It is listed because the picture prints its values under that label.

Bel-7402 cells [4] = experiment: Annexin V-FITC/PI apoptosis assay; format: cell-based, human; conditions: 24 h, control 8.27%
Method: The Bel-7402 cells were seeded in 6-well plates to grow overnight, and then treated with or without 10f at indicated concentrations in triplicate for 24 h. Cells were then washed twice in PBS and resuspended in annexin V binding buffer. Annexin V-FITC was then added and the mixture was incubated for 15 min under dark conditions at 25 °C. PI was added just prior to acquisition. Apoptosis was analyzed using annexin V and PI double-staining by flow cytometry according to the manufacturer’s instructions in order to detect apoptotic cells.
Figure 5 Apoptosis in Bel-7402 cells by treatment with 10f: Bel-7402 cells were incubated with different concentrations of 10f for 24 h and the cells were stained with annexin V-FITC and PI, followed by flow cytometry analysis. TEXT PRINTED IN THE PICTURE: Control: 2.67%; 2.37%; 89.06%; 5.90% | no label printed: 2.07% (1.0 μM); 4.15% (1.0 μM); 74.53% (1.0 μM); 19.26% (1.0 μM); 5.69% (1.5 μM); 15.20% (1.5 μM); 55.99% (1.5 μM); 23.12% (1.5 μM); 3.33% (2.0 μM); 26.65% (2.0 μM); 37.87% (2.0 μM); 32.15% (2.0 μM) DOUBTS OF THE COPYIST ABOUT THIS PICTURE: The picture prints no compound label for the treated plots, only the concentrations 1.0 μM, 1.5 μM and 2.0 μM, so the substance is left empty. / The picture prints no measure or quadrant name for the percentages. Each plot's values are given in the order upper left, upper right, lower left, lower right.

MGC-803 cells = experiment: MTT antiproliferative assay, MGC-803; format: cell-based, human
Method: as §1

Bel-7402 cells [5] = experiment: MTT antiproliferative assay, Bel-7402; format: cell-based, human
Method: [The source words this procedure for another cell line and reports this cell line under the same test.] as §1

IC50 (K562 cells; Homo sapiens, K562, MTT, 72 h, mean ± S.D. of three experiments): 1.73 ± 0.04 µM | melting point: 151 to 154 °C | IC50 (MGC-803 cells; Homo sapiens, MGC-803, MTT, 72 h, mean ± S.D. of three experiments): 1.18 ± 0.1 µM | IC50 (Bel-7402 cells [5]; Homo sapiens, Bel-7402, MTT, 72 h, mean ± S.D. of three experiments): 0.81 ± 0.06 µM
Structure (SMILES): C=C1C(=O)C23C(=O)OC4CCC(C)(C)C5C(=O)OCC45C2CCC1C3OC(=O)c1ccccc1C(=O)OCCCOc1no[n+]([O-])c1S(=O)(=O)c1ccccc1 (stereo not shown) [Compound 10f]
IC50 (CaEs-17 cells; Homo sapiens, CaEs17, MTT, 72 h, mean ± S.D. of three experiments): 3.77 ± 0.3 µM | fold stronger than 1, CaEs-17 (CaEs-17 cells; IC50 compared with 1): 1.9 fold | fold stronger than 9, CaEs-17 (CaEs-17 cells; IC50 compared with 9): 5.3 fold | cells with collapsed mitochondrial membrane potentials (Bel-7402 cells [1]; 10f 0.5 μM): 17.76% | cells with collapsed mitochondrial membrane potentials (Bel-7402 cells [1]; 10f 1.5 μM): 33.44% | cells with collapsed mitochondrial membrane potentials (Bel-7402 cells [1]; 10f 2.0 μM): 47.63% | anti-apoptotic Bcl-2 expression [2]: downregulation | expression of proapoptotic caspase-3, -8, -9, Bax, FAS, and cytochrome c [2]: upregulation | IC50 (L-02 normal liver cells; MTT, 72 h, mean ± S.D. of three experiments, read-out: antiproliferative activity IC50, L-02): 29.9 ± 1.4 µM | SI (selectivity index) (L-02 normal liver cells; selectivity between tumor and normal liver cells): 36.9 | fold stronger than 1, K562 (K562 cells; IC50 compared with 1): 1.8 fold | G2 phase cells (Bel-7402 cells [3]; 10f 1.0 μM): 17.32% | cells at the S phase (Bel-7402 cells [3]; 10f 1.0 μM): 40.27% | G2 phase cells (Bel-7402 cells [3]; 10f 1.5 μM): 8.79% | cells at the S phase (Bel-7402 cells [3]; 10f 1.5 μM): 48.11% | G2 phase cells (Bel-7402 cells [3]; 10f 2.0 μM): 6.02% | cells at the S phase (Bel-7402 cells [3]; 10f 2.0 μM): 53.34% | apoptotic cell rates (early and late) (Bel-7402 cells [4]; 10f 1.0 μM): 23.41% | apoptotic cell rates (early and late) (Bel-7402 cells [4]; 10f 1.5 μM): 38.32% | apoptotic cell rates (early and late) (Bel-7402 cells [4]; 10f 2.0 μM): 58.80% | fold stronger than 1, MGC-803 (MGC-803 cells; IC50 compared with 1): 3.8 fold | fold stronger than 9, MGC-803 (MGC-803 cells; IC50 compared with 9): 3.9 fold | fold stronger than 1, Bel-7402 (Bel-7402 cells [5]; IC50 compared with 1): 8.2 fold | fold stronger than 9, Bel-7402 (Bel-7402 cells [5]; IC50 compared with 9): 18.7 fold

Source: paper PMC6272893, “NO-Releasing Enmein-Type Diterpenoid Derivatives with Selective Antiproliferative Activity and Effects on Apoptosis-Related Proteins” (Molecules, 2016)
